Read-outs that look alike come from different tables or passages of the source. Ends that are not written are not given here. Peptide text beside a SMILES is read from it.
Experiments:
CRF2R = target: T1, CRF2R (Homo sapiens, UniProt Q13324); assay: CRF2R agonist activity (EC50 and Emax), called comparative CRF binding; assay type: cell-based; settings: CRF2R
T1 sequence (Q13324 1-411): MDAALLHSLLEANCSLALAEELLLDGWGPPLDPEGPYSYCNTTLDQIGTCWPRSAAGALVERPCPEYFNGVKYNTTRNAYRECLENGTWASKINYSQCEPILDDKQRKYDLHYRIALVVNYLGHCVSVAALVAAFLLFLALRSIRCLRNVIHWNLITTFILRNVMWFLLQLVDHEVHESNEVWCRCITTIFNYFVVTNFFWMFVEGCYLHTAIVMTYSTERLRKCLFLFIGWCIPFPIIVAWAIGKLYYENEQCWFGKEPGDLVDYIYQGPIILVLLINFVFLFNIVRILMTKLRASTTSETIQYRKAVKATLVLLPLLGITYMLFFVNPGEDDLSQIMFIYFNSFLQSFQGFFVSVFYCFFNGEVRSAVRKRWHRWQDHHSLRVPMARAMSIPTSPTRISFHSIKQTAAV
Description: (§1) The pharmacological activity and selectivity of the peptides of present invention can be determined using published test procedures. See, e.g, U.S. patent application Ser. No. 09/799,978. Because CRF2R and CRF1R are homologous proteins, it is expected that a certain proportion of agonists for CRF2R will also function as agonists of CRF1R. As discussed above, activation of CRF1R induces activation of the HPA axis since increased corticosteroid production leads to skeletal muscle atrophy. In most cases in which an increase in muscle mass or function is desired, it is not desirable to activate the HPA axis.
(§2) Because it is desirable to discriminate binding between CRF2R, as compared with CRF1R, the assays described above may be conducted using a cell, or membrane from a cell, which expresses only CRF2R or the assays can be conducted with a recombinant source of CRF2R. Cells expressing both forms of CRFR may be modified using homologous recombination to inactivate or otherwise disable the CRF1R gene. Alternatively, if the source of CRFR contains more than one CRFR type, the background signal produced by the receptor which is not of interest must be subtracted from the signal obtained in the assay. […] Known antagonists of CRFRs include, but are not limited to, antalarmin (CRF1R selective), antisauvagine-30 (CRF2R selective) and astressin (nonselective for CRF1R/CRF2R).
(§3) Cell-based assays include the steps of contacting cells which express CRF1R or CRF2R with a peptide of the present invention or control and measuring activation of the CRFR by measuring the expression or activity of components of the CRFR signal transduction pathways.
(§4) For example, after contact with a peptide of the present invention, lysates of the cells can be prepared and assayed for induction of cAMP. cAMP is induced in response to Gαs activation. Because Gαs is activated by receptors other than CRFR and because a test peptide may be exerting its effect through CRFRs or by another mechanism, two control comparisons are relevant for determining whether the peptide increases levels of cAMP via activation of a CRFR. One control compares the cAMP level of cells contacted with the peptide and the cAMP level of cells contacted with a control compound (i.e., the vehicle in which the peptide is dissolved).
(§5) In one example, cAMP induction is measured with the use of DNA constructs containing the cAMP responsive element linked to any of a variety of reporter genes can be introduced into cells expressing CRFRs. Such reporter genes include, but are not limited to, chloramphenicol acetyltransferase (CAT), luciferase, glucuronide synthetase, growth hormone, fluorescent proteins (e.g., Green Fluorescent Protein), or alkaline phosphatase. Following exposure of the cells to the peptide, the level of reporter gene expression can be quantitated to determine the peptide's ability to increase cAMP levels and thus determine the peptide's ability to activate the CRFR.
(§6) In addition to using cells expressing full length CRFRs, cells can be engineered which express CRFRs containing the ligand binding domain of the receptor coupled to, or physically modified to contain, reporter elements or to interact with signaling proteins. For example, a wild type CRFR or CRFR fragment can be fused to a G-protein resulting in activation of the fused G-protein upon agonist binding to the CRFR portion of the fusion protein. […] In addition, alternative pathways for induction of the CRE reporter could be eliminated to reduce basal levels.

CRF1R = target: T2, CRF1R (Homo sapiens, UniProt P34998); assay: CRF1R agonist activity (EC50 and Emax), called comparative CRF binding; assay type: cell-based; settings: CRF1R
T2 sequence (P34998 24-415): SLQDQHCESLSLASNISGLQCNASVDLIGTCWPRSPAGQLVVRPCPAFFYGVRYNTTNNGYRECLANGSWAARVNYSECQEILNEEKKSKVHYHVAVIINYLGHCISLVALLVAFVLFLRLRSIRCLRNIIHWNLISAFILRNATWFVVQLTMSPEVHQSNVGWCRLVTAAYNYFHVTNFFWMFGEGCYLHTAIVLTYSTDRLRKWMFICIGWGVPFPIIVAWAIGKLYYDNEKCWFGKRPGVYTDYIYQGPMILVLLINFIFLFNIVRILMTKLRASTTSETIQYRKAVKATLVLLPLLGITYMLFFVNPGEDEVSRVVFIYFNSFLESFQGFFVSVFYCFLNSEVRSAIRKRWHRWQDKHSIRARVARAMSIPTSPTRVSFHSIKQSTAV
Description: as §1, §2, §3, §4, §5, §6

Row | Molecule | EC50 (CRF2R; read-out: CRF2R EC50) [nM] | EC50 (CRF1R; read-out: CRF1R EC50) [nM] | further results
1 | CC[C@H](C)[C@H](N)C(=O)N[C@H](C(=O)N[C@@H](CC(C)C)C(=O)N[C@@H](CO)C(=O)N[C@@H](CC(C)C)C(=O)N[C@@H](CC(=O)O)C(=O)N[C@H](C(=O)N1CCC[C@H]1C(=O)N[C@H](C(=O)NCC(=O)N[C@@H](CC(C)C)C(=O)N[C@@H](CC(C)C)C(=O)N[C@@H](CCC(N)=O)C(=O)N[C@H](C(=O)N[C@@H](CC(C)C)C(=O)N[C@@H](CC(C)C)C(=O)N[C@@H](CCC(=O)O)C(=O)N[C@@H](CCC(N)=O)C(=O)N[C@H](C(=O)N[C@@H](CCCCN)C(=O)N[C@@H](C)C(=O)N[C@@H](CC(N)=O)C(=O)N[C@@H](C)C(=O)N[C@@H](C)C(=O)N[C@@H](CCCNC(=N)N)C(=O)N[C@@H](CCC(=O)O)C(=O)N[C@@H](CCC(N)=O)C(=O)N[C@@H](C)C(=O)N[C@H](C(=O)N[C@H](C(=O)N[C@H](C(=O)N[C@@H](C)C(=O)N[C@@H](CCCNC(=N)N)C(=O)N[C@H](C(=O)N[C@@H](CC(C)C)C(=O)N[C@@H](C)C(=O)N[C@@H](CCCNC(=N)N)C(=O)N[C@H](C(N)=O)C(C)C)[C@@H](C)CC)C(C)C)[C@@H](C)O)[C@@H](C)O)[C@@H](C)O)[C@@H](C)CC)[C@@H](C)CC)C(C)C)C(C)C [compound 116] (H-IVLSLDVPIGLLQILLEQTKANAAREQATTVARILARV-NH2) | ≥ 100 | ≥ 100 | 
2 | CC[C@H](C)[C@H](NC(=O)[C@H](C)NC(=O)[C@H](CC(N)=O)NC(=O)[C@H](CCC(N)=O)NC(=O)[C@H](CCC(=O)O)NC(=O)[C@H](C)NC(=O)[C@H](CCCNC(=N)N)NC(=O)[C@H](CCC(=O)O)NC(=O)[C@H](CCCNC(=N)N)NC(=O)[C@H](CCC(N)=O)NC(=O)[C@H](CO)NC(=O)[C@H](CCC(N)=O)NC(=O)[C@@H](NC(=O)[C@H](CCCNC(=N)N)NC(=O)[C@H](C)NC(=O)[C@H](CC(C)C)NC(=O)[C@H](CCC(=O)O)NC(=O)[C@H](CC(C)C)NC(=O)[C@H](CC(C)C)NC(=O)[C@@H](NC(=O)[C@H](CCCNC(=N)N)NC(=O)[C@H](CC(C)C)NC(=O)[C@H](CC(C)C)NC(=O)[C@H](Cc1ccc(O)cc1)NC(=O)[C@@H](NC(=O)[C@@H]1CCCN1C(=O)[C@H](CC(C)C)NC(=O)[C@H](CC(=O)O)NC(=O)[C@@H](NC(=O)[C@H](CO)NC(=O)[C@H](CC(C)C)NC(=O)[C@H](CO)NC(=O)[C@@H]1CCCN1C(=O)[C@H](CC(N)=O)NC(=O)[C@@H](N)CC(=O)O)[C@@H](C)CC)[C@@H](C)O)[C@@H](C)O)[C@@H](C)O)C(=O)N[C@H](C(=O)N[C@@H](Cc1ccccc1)C(=O)N[C@@H](C)C(=O)N[C@@H](CO)C(=O)N[C@H](C(N)=O)C(C)C)[C@@H](C)CC [compound 173] (H-DNPSLSIDLPTYLLRTLLELARTQSQRERAEQNAIIFASV-NH2) | ≥ 100 | ≥ 1000 | 
3 | CC[C@H](C)[C@H](NC(=O)[C@H](C)NC(=O)[C@H](CC(N)=O)NC(=O)[C@H](CCC(N)=O)NC(=O)[C@H](CCC(=O)O)NC(=O)[C@H](C)NC(=O)[C@H](CCCNC(=N)N)NC(=O)[C@H](CCC(=O)O)NC(=O)[C@H](CCCNC(=N)N)NC(=O)[C@H](CCC(N)=O)NC(=O)[C@H](CO)NC(=O)[C@H](CCC(N)=O)NC(=O)[C@@H](NC(=O)[C@H](CCCNC(=N)N)NC(=O)[C@H](C)NC(=O)[C@H](CC(C)C)NC(=O)[C@H](CCC(=O)O)NC(=O)[C@H](CC(C)C)NC(=O)[C@H](CC(C)C)NC(=O)[C@@H](NC(=O)[C@H](CCCNC(=N)N)NC(=O)[C@H](CC(C)C)NC(=O)[C@H](CC(C)C)NC(=O)[C@H](Cc1ccccc1)NC(=O)[C@H](Cc1ccccc1)NC(=O)[C@@H]1CCCN1C(=O)[C@H](CC(C)C)NC(=O)[C@H](CC(=O)O)NC(=O)[C@@H](NC(=O)[C@H](CO)NC(=O)[C@H](CC(C)C)NC(=O)[C@H](CO)NC(=O)[C@@H]1CCCN1C(=O)[C@H](CC(N)=O)NC(=O)[C@@H](N)CC(=O)O)[C@@H](C)CC)[C@@H](C)O)[C@@H](C)O)C(=O)N[C@H](C(=O)N[C@@H](Cc1ccccc1)C(=O)N[C@@H](C)C(=O)N[C@@H](CO)C(=O)N[C@H](C(N)=O)C(C)C)[C@@H](C)CC [compound 184] (H-DNPSLSIDLPFFLLRTLLELARTQSQRERAEQNAIIFASV-NH2; N-terminus assumed) | 3.72 | 486 | 
4 | CC[C@H](C)[C@H](N)C(=O)N[C@H](C(=O)N[C@@H](CC(C)C)C(=O)N[C@@H](CO)C(=O)N[C@@H](CC(C)C)C(=O)N[C@@H](CC(=O)O)C(=O)N[C@H](C(=O)N1CCC[C@H]1C(=O)N[C@H](C(=O)NCC(=O)N[C@@H](CC(C)C)C(=O)N[C@@H](CC(C)C)C(=O)N[C@@H](CCC(N)=O)C(=O)N[C@H](C(=O)N[C@@H](CC(C)C)C(=O)N[C@@H](CC(C)C)C(=O)N[C@@H](CCC(=O)O)C(=O)N[C@@H](CCCCN)C(=O)N[C@@H](C)C(=O)N[C@@H](C)C(=O)N[C@@H](C)C(=O)N[C@@H](CCC(=O)O)C(=O)N[C@@H](C)C(=O)N[C@@H](CCC(=O)O)C(=O)N[C@@H](C)C(=O)N[C@@H](C)C(=O)N[C@@H](C)C(=O)N[C@@H](CCCCN)C(=O)N[C@@H](C)C(=O)N[C@@H](C)C(=O)N[C@@H](CCC(N)=O)C(=O)N[C@@H](CCC(=O)O)C(=O)N[C@@H](CCC(N)=O)C(=O)N[C@H](C(=O)N[C@@H](CC(C)C)C(=O)N[C@@H](C)C(=O)N[C@@H](Cc1c[nH]cn1)C(=O)N[C@H](C(N)=O)C(C)C)[C@@H](C)CC)[C@@H](C)CC)[C@@H](C)CC)C(C)C)C(C)C [compound 366] (H-IVLSLDVPIGLLQILLEKAAAEAEAAAKAAQEQILAHV-NH2) | ≥ 100 | ≥ 1000 | 
5 | CC[C@H](C)[C@H](N)C(=O)N[C@H](C(=O)N[C@@H](CC(C)C)C(=O)N[C@@H](CO)C(=O)N[C@@H](CC(C)C)C(=O)N[C@@H](CC(=O)O)C(=O)N[C@H](C(=O)N1CCC[C@H]1C(=O)N[C@H](C(=O)NCC(=O)N[C@@H](CC(C)C)C(=O)N[C@@H](CC(C)C)C(=O)N[C@@H](CCC(N)=O)C(=O)N[C@H](C(=O)N[C@@H](CC(C)C)C(=O)N[C@@H](CC(C)C)C(=O)N[C@@H](CCC(=O)O)C(=O)N[C@H](C(=O)N[C@@H](CCC(=O)O)C(=O)N[C@@H](CCCCN)C(=O)N[C@@H](CCC(N)=O)C(=O)N[C@@H](CCC(=O)O)C(=O)N[C@@H](CCCCN)C(=O)N[C@@H](CCC(=O)O)C(=O)N[C@@H](CCCCN)C(=O)N[C@@H](CCC(N)=O)C(=O)N[C@@H](CCC(N)=O)C(=O)N[C@@H](C)C(=O)N[C@@H](C)C(=O)N[C@@H](CC(N)=O)C(=O)N[C@@H](CC(N)=O)C(=O)N[C@@H](CCCNC(=N)N)C(=O)N[C@@H](CC(C)C)C(=O)N[C@@H](CC(C)C)C(=O)N[C@@H](CC(C)C)C(=O)N[C@@H](CC(=O)O)C(=O)N[C@H](C(=O)N[C@H](C(N)=O)[C@@H](C)CC)[C@@H](C)O)[C@@H](C)CC)[C@@H](C)CC)[C@@H](C)CC)C(C)C)C(C)C [compound 158] (H-IVLSLDVPIGLLQILLEIEKQEKEKQQAANNRLLLDTI-NH2) |  |  | EC50 (CRF2R; CRF2R EC50 (nM)): 6.37 nM; EC50 (CRF1R; CRF1R EC50 (nM)): > 100 nM
6 | SQEIVLSLDVPIGLLREVLEMTKADQLAQQAHSNRKLLDIA-NH2 [compound 7] |  |  | CRF2R (Emax %) (CRF2R; Emax): (19) %; CRF1R (Emax %) (CRF1R; Emax): (4) %

Source: patent US7632933B2, “Corticotropin releasing factor 2 receptor agonists” (priority 2002, dated 2009)
